Experimental data published in ChEMBL document CHEMBL5154804, “Species-Selective Targeting of Fungal Hsp90: Design, Synthesis, and Evaluation of Novel 4,5-Diarylisoxazole Derivatives for the Combination Treatment of Azole-Resistant Candidiasis” (J Med Chem, 2022).
pIC50: −log10 of the molar value.

Assays:
[1] = tested on: Candida albicans; experiment: Synergetic antifungal activity against fluconazole-resistant Candida albicans 901 assessed as fractional inhibitory concentration index in presence of fluconazole by checker board microdilution assay; format: functional
[2] = Cytotoxicity against human BEAS-2B cell assessed as inhibition of cell growth after 24 hrs by MTT assay; format: toxicity, cell-based; details: BEAS-2B cells
[3] = tested on: Candida albicans; experiment: Potentiation of fluconazole-induced antifungal activity against fluconazole-resistant Candida albicans 901 assessed as fluconazole MIC by checker board microdilution assay; format: functional
[4] = tested on: Candida albicans; experiment: Antifungal activity against fluconazole-resistant Candida albicans 311 assessed as inhibition of fungal growth by checker board microdilution assay; format: functional
[5] = tested on: Candida albicans; experiment: Synergistic antifungal activity against fluconazole-resistant Candida albicans 103 assessed as inhibition of fungal growth in presence of fluconazole by checker board microdilution assay; format: functional
[6] = biological target: CYP2C19 (Homo sapiens, UniProt P33261); experiment: Inhibition of CYP2C19 in human liver microsome at 10 uM using S-mephenytoin as substrate incubated for 10 mins in presence of NADPH cofactor by LC-MS/MS analysis; format: ADME; details: liver microsomes, probe S-mephenytoin
[7] = tested on: Candida albicans; experiment: Synergetic antifungal activity against fluconazole-resistant Candida albicans 103 assessed as fractional inhibitory concentration index in presence of fluconazole by checker board microdilution assay; format: functional
[8] = biological target: CYP2C9 (Homo sapiens, UniProt P11712); experiment: Inhibition of CYP2C9 in human liver microsome at 10 uM using diclofenac as substrate incubated for 10 mins in presence of NADPH cofactor by LC-MS/MS analysis; format: ADME; details: liver microsomes, probe diclofenac
[9] = tested on: Candida albicans; experiment: Synergistic antifungal activity against fluconazole-resistant Candida albicans 100 assessed as inhibition of fungal growth in presence of fluconazole by checker board microdilution assay; format: functional
[10] = tested on: Candida albicans; experiment: Synergetic antifungal activity against fluconazole-resistant Candida albicans 100 assessed as fractional inhibitory concentration index in presence of fluconazole by checker board microdilution assay; format: functional
[11] = biological target: CYP2D6 (Homo sapiens, UniProt P10635); experiment: Inhibition of CYPD6 in human liver microsome at 10 uM using dextromethorphan as substrate incubated for 10 mins in presence of NADPH cofactor by LC-MS/MS analysis; format: ADME; details: liver microsomes, probe dextromethorphan
[12] = Metabolic stability in human liver microsomes assessed as microsomal intrinsic clearance in presence of NADPH cofactor under shaking condition for 10 mins measured after 5 to 60 mins by LC-MS/MS analysis; format: ADME, Microsome; details: time 15-70 min
[13] = Metabolic stability in human liver microsomes assessed as intrinsic clearance in presence of NADPH cofactor under shaking condition for 10 mins measured after 5 to 60 mins by LC-MS/MS analysis; format: ADME, Microsome; details: time 15-70 min
[14] = tested on: Candida albicans; experiment: Synergistic antifungal activity against fluconazole-resistant Candida albicans 904 assessed as inhibition of fungal growth in presence of fluconazole by checker board microdilution assay; format: functional
[15] = tested on: HepG2; experiment: Cytotoxicity against human HepG2 cell assessed as inhibition of cell growth after 24 hrs by MTT assay; format: functional, cell-based; details: HepG2, 24 h
[16] = Stability in human plasma assessed as compound remaining at 120 mins by LC-MS/MS analysis; format: ADME, cell-free; details: read-out: Stability
[17] = tested on: RAW264.7; experiment: Cytotoxicity against mouse RAW264.7 cell assessed as inhibition of cell growth after 24 hrs by MTT assay; format: functional, cell-based; details: RAW264.7, 24 h
[18] = tested on: Candida albicans; experiment: Synergistic antifungal activity against fluconazole-resistant Candida albicans 311 assessed as inhibition of fungal growth in presence of fluconazole by checker board microdilution assay; format: functional
[19] = tested on: Candida albicans; experiment: Potentiation of fluconazole-induced antifungal activity against fluconazole-resistant Candida albicans 103 assessed as fluconazole MIC by checker board microdilution assay; format: functional
[20] = Cytotoxicity against human THLE-2 cell assessed as inhibition of cell growth after 24 hrs by MTT assay; format: toxicity, cell-based; details: THLE-2 cells
[21] = tested on: Candida albicans; experiment: Synergetic antifungal activity against fluconazole-resistant Candida albicans 311 assessed as fractional inhibitory concentration index in presence of fluconazole by checker board microdilution assay; format: functional
[22] = tested on: Candida albicans; experiment: Synergetic antifungal activity against fluconazole-resistant Candida albicans 904 assessed as fractional inhibitory concentration index in presence of fluconazole by checker board microdilution assay; format: functional
[23] = tested on: A549; experiment: Cytotoxicity against human A549 cell assessed as inhibition of cell growth after 24 hrs by MTT assay; format: functional, cell-based; details: A549, 24 h
[24] = Stability in human plasma assessed as half life at 120 mins by LC-MS/MS analysis; format: ADME, cell-free
[25] = biological target: T1, CYP1A2 (Homo sapiens, UniProt P05177); experiment: Inhibition of CYP1A2 in human liver microsome at 10 uM using phenacetin as substrate incubated for 10 mins in presence of NADPH cofactor by LC-MS/MS analysis; format: ADME; details: liver microsomes, probe phenacetin
T1 sequence (P05177 whole entry): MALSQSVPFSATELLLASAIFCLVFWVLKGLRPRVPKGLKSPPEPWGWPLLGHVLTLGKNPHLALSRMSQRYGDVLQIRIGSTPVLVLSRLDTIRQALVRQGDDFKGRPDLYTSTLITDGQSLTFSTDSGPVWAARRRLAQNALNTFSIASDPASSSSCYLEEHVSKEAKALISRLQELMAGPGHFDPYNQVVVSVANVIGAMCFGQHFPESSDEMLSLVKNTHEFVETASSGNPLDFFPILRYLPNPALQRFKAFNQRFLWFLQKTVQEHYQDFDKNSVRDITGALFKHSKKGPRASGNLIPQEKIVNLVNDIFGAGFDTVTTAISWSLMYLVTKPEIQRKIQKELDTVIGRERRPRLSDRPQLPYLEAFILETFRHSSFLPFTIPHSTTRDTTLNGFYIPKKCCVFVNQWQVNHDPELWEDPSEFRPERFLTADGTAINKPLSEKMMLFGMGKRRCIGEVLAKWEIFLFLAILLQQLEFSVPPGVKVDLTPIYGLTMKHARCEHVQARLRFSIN

[26] = tested on: Candida albicans; experiment: Synergetic antifungal activity against fluconazole-resistant Candida albicans 632 assessed as fractional inhibitory concentration index in presence of fluconazole by checker board microdilution assay; format: functional
[27] = biological target: CYP3A4 (Homo sapiens, UniProt P08684); experiment: Inhibition of CYP3A4 in human liver microsome at 10 uM using midazolam as substrate incubated for 10 mins in presence of NADPH cofactor by LC-MS/MS analysis; format: ADME; details: liver microsomes, probe midazolam
[28] = tested on: Candida albicans; experiment: Potentiation of fluconazole-induced antifungal activity against fluconazole-resistant Candida albicans 311 assessed as fluconazole MIC by checker board microdilution assay; format: functional
[29] = tested on: Candida albicans; experiment: Potentiation of fluconazole-induced antifungal activity against fluconazole-resistant Candida albicans 100 assessed as fluconazole MIC by checker board microdilution assay; format: functional
[30] = tested on: Candida albicans; experiment: Antifungal activity against fluconazole-resistant Candida albicans 100 assessed as inhibition of fungal growth by checker board microdilution assay; format: functional
[31] = tested on: Candida albicans; experiment: Antifungal activity against fluconazole-resistant Candida albicans 103 assessed as inhibition of fungal growth by checker board microdilution assay; format: functional
[32] = tested on: Candida albicans; experiment: Potentiation of fluconazole-induced antifungal activity against fluconazole-resistant Candida albicans 904 assessed as fluconazole MIC by checker board microdilution assay; format: functional
[33] = Cytotoxicity against mouse NIH3T3 cell assessed as inhibition of cell growth after 24 hrs by MTT assay; format: toxicity, cell-based; details: NIH3T3 cells
[34] = tested on: Candida albicans; experiment: Potentiation of fluconazole-induced antifungal activity against fluconazole-resistant Candida albicans 632 assessed as fluconazole MIC by checker board microdilution assay; format: functional
[35] = Metabolic stability in human liver microsomes assessed as compound remaining in presence of NADPH cofactor under shaking condition for 10 mins measured after 60 mins by LC-MS/MS analysis; format: ADME, Microsome; details: time 70 min, read-out: Stability
[36] = tested on: Candida albicans; experiment: Antifungal activity against fluconazole-resistant Candida albicans 632 assessed as inhibition of fungal growth by checker board microdilution assay; format: functional
[37] = tested on: Candida albicans; experiment: Synergistic antifungal activity against fluconazole-resistant Candida albicans 901 assessed as inhibition of fungal growth in presence of fluconazole by checker board microdilution assay; format: functional
[38] = tested on: Candida albicans; experiment: Antifungal activity against fluconazole-resistant Candida albicans 901 assessed as inhibition of fungal growth by checker board microdilution assay; format: functional
[39] = Cytotoxicity against mouse BV-2 cell assessed as inhibition of cell growth after 24 hrs by MTT assay; format: toxicity, cell-based; details: BV-2 cells
[40] = tested on: MCF7; experiment: Cytotoxicity against human MCF7 cell assessed as inhibition of cell growth after 24 hrs by MTT assay; format: functional, cell-based; details: MCF7, 24 h
[41] = tested on: Candida albicans; experiment: Synergistic antifungal activity against fluconazole-resistant Candida albicans 632 assessed as inhibition of fungal growth in presence of fluconazole by checker board microdilution assay; format: functional
[42] = tested on: Candida albicans; experiment: Antifungal activity against fluconazole-resistant Candida albicans 904 assessed as inhibition of fungal growth by checker board microdilution assay; format: functional
[43] = Metabolic stability in human liver microsomes assessed as half life in presence of NADPH cofactor under shaking condition for 10 mins measured after 5 to 60 mins by LC-MS/MS analysis; format: ADME, Microsome; details: time 15-70 min

Sequence of CYP2D6 (P10635 whole entry): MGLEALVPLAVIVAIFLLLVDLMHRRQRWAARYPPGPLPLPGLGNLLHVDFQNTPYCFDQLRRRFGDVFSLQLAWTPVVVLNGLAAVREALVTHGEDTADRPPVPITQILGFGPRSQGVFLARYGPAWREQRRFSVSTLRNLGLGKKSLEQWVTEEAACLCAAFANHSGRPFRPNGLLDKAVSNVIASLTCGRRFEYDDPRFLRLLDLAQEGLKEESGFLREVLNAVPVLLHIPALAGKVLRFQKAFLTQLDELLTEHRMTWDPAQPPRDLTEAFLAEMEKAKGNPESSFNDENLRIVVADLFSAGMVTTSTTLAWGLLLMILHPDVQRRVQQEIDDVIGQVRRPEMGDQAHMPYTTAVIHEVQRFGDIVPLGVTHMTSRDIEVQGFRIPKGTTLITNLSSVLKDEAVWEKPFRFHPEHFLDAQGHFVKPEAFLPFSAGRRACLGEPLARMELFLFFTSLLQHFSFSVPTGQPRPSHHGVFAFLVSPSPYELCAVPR
Sequence of CYP2C19 (P33261 whole entry): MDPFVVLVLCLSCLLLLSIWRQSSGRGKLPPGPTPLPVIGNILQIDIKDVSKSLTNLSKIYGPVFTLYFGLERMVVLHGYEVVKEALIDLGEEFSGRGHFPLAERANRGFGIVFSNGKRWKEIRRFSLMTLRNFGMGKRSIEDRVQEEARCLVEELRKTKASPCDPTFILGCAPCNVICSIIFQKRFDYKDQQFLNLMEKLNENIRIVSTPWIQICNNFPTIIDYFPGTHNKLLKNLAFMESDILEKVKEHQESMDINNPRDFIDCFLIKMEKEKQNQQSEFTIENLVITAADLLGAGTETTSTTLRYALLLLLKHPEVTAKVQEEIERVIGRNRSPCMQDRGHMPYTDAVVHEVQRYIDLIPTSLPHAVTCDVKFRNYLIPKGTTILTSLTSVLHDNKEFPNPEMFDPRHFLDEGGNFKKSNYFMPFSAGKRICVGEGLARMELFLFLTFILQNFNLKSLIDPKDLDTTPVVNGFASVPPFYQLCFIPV
Sequence of CYP3A4 (P08684 whole entry): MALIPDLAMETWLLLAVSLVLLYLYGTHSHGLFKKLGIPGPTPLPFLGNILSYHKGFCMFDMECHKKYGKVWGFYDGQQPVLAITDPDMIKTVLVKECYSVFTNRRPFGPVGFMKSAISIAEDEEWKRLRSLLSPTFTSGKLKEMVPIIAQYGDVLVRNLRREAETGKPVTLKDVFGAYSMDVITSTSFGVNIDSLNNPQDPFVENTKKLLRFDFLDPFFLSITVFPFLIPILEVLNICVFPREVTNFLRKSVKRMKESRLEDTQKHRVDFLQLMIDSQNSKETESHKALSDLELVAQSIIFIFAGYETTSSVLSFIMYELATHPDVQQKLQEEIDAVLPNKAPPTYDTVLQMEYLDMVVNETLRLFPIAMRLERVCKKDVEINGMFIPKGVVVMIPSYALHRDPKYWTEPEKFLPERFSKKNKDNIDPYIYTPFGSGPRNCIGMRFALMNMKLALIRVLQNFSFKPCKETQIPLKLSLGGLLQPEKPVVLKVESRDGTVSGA
Sequence of CYP2C9 (P11712 whole entry): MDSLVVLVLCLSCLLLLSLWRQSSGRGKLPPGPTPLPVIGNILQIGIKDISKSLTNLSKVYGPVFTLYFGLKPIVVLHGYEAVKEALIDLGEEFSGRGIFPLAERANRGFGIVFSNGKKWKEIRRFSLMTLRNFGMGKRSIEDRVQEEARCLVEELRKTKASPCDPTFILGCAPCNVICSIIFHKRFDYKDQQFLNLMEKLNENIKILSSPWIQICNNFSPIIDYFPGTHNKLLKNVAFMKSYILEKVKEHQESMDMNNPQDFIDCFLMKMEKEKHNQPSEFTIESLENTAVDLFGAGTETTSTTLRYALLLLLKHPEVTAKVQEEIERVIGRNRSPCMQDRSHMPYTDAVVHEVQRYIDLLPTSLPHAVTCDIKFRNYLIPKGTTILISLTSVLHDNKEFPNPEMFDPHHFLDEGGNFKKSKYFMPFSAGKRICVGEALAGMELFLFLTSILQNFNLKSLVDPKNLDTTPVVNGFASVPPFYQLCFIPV

SMILES: CNC(=O)c1noc(-c2cc(-c3ccc(C)cc3)c(O)cc2O)c1-c1ccc(CN2CCCCC2)cc1
- fractional inhibitory concentration index (FICI) [1]: 0.02
- IC50 at 24 h [2]: 11.6 µM
- MIC80 [3]: 1 mg/L
- MIC80 [4]: > 64 mg/L
- MIC80 [5]: 0.5 mg/L
- inhibition at 10 min, 10 µM [6]: 48.5%
- fractional inhibitory concentration index (FICI) [7]: 0.039
- inhibition at 10 min, 10 µM [8]: 44.6%
- MIC80 [9]: 1 mg/L
- fractional inhibitory concentration index (FICI) [10]: 0.047
- inhibition at 10 min, 10 µM [11]: 24.8%
- CLint [12]: 32 µL/min/mg
- CLint [13]: 1.73 L/h/kg
- MIC80 [14]: 0.125 mg/L
- pIC50 [15]: 4.60
- remaining at 2 h [16]: 55.2%
- pIC50 [17]: 5.44
- MIC80 [18]: 0.5 mg/L
- MIC80 [19]: 2 mg/L
- IC50 at 24 h [20]: 2.79 µM
- fractional inhibitory concentration index (FICI) [21]: 0.023
- fractional inhibitory concentration index (FICI) [22]: 0.01
- pIC50 [23]: 4.97
- half-life [24]: 2.18 h
- inhibition at 10 min, 10 µM [25]: 17.7%
- fractional inhibitory concentration index (FICI) [26]: 0.062
- inhibition at 10 min, 10 µM [27]: 17.7%
- MIC80 [28]: 1 mg/L
- MIC80 [29]: 2 mg/L
- MIC80 [30]: > 64 mg/L
- MIC80 [31]: > 64 mg/L
- MIC80 [32]: 0.5 mg/L
- IC50 at 24 h [33]: 0.46 µM
- MIC80 [34]: 2 mg/L
- remaining at 1.167 h [35]: 38.3%
- MIC80 [36]: > 64 mg/L
- MIC80 [37]: 0.25 mg/L
- MIC80 [38]: > 64 mg/L
- IC50 at 24 h [39]: 3.04 µM
- pIC50 [40]: 4.81
- MIC80 [41]: 2 mg/L
- MIC80 [42]: > 64 mg/L
- half-life [43]: 0.722 h
